Active and inactive are the calls of the source.
Experiments:
BJ [1] = assay: cytotoxicity toward BJ-TERT fibroblasts, dose response, cell-based, RAS-independent, luminescence (AID 1933); format: functional; details: Homo sapiens
BJ [2] = assay: cells; format: functional, cell-based; details: Homo sapiens
BJ [3] = assay: cytotoxicity toward BJ-TERT-LT-ST fibroblasts, dose response, cell-based, RAS-independent, luminescence (AID 1935); format: functional; details: Homo sapiens;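 further: BJ fibroblasts immortalized with TERT plus LT and ST oncogenes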
[4] = cytotoxicity toward DRD oncogenic fibroblasts, dose response, cell-based, non-viral oncogenic, luminescence (AID 1934); format: functional; details: Homo sapiens
Cytochrome P450 2D6 = Cytochrome P450 2D6 (Homo sapiens, UniProt P10635);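 further: CYP2D6 member of a cytochrome P450 panel assay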
Chain of Cytochrome P450 2D6 (P10635 whole entry): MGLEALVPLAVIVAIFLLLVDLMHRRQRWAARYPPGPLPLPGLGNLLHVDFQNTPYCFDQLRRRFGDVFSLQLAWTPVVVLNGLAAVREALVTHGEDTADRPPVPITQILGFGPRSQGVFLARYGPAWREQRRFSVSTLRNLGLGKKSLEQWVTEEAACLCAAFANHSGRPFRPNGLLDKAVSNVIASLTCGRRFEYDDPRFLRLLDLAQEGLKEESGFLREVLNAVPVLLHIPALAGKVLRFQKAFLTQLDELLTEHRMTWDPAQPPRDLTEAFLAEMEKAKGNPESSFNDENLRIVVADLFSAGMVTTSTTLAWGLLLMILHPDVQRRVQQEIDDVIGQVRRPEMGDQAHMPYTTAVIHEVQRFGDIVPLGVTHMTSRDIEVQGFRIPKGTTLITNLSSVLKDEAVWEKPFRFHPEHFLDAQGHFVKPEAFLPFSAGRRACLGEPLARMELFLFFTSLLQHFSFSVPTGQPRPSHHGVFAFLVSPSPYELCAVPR

[5] = target: T1, Polyadenylate-binding protein 1 (Homo sapiens, UniProt P11940); assay: PABP1 MLLE–PAM2 interaction inhibitors, dose response, miRNA deadenylation inhibitor project, biochemical, fluorescence polarization, Cy5-PAM2 peptide, secondary (AID 602260); format: functional; details: read-out: IC50_Mean
T1 sequence (P11940 whole entry): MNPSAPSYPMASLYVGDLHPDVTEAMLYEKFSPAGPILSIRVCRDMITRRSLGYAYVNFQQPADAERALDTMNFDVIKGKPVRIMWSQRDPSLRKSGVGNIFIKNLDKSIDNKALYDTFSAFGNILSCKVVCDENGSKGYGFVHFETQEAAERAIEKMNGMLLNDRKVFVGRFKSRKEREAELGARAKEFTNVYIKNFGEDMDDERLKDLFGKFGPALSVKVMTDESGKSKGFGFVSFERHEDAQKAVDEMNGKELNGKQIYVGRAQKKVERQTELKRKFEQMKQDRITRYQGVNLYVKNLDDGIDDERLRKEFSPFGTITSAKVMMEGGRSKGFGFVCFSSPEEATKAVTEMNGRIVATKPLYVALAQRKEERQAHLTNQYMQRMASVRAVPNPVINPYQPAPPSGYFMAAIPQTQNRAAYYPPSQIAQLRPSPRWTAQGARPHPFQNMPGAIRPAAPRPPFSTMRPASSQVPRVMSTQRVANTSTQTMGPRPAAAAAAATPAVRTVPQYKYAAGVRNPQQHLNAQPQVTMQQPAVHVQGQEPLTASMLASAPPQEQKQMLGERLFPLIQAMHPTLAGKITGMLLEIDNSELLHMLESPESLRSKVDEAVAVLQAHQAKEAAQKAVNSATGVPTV

[6] = target: T1, Polyadenylate-binding protein 1; assay: PABP1 MLLE–PAM2 binding inhibitor potency, dose response, biochemical, fluorescence polarization, FITC-PAM2 peptide (AID 602259); format: functional; details: read-out: IC50_Mean
Cytochrome P450 2C19 = Cytochrome P450 2C19 (Homo sapiens, UniProt P33261); assay: Cytochrome panel assay with activity outcomes. Panel member name: p450-cyp2c19 Compounds with AC50 equal or less than 10 uM are considered active; format: functional
Chain of Cytochrome P450 2C19 (P33261 whole entry): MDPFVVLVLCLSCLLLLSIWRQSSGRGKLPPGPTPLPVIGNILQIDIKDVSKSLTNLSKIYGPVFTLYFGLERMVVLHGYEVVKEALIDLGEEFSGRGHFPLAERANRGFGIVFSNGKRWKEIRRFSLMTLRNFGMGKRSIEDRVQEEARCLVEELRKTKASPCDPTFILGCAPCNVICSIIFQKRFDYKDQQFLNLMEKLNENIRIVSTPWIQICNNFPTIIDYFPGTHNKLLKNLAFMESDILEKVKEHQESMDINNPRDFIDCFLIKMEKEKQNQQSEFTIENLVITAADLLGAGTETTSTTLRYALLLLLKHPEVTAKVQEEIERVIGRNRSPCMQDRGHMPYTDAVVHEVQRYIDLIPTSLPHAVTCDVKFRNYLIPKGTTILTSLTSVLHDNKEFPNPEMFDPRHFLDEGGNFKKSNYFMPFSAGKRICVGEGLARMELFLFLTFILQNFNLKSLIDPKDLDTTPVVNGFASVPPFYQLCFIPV

Cytochrome P450 1A2 = target: T2, Cytochrome P450 1A2 (Homo sapiens, UniProt P05177);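 further: PubChem cytochrome P450 panel assay, CYP1A2 panel member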
T2 sequence (P05177 whole entry): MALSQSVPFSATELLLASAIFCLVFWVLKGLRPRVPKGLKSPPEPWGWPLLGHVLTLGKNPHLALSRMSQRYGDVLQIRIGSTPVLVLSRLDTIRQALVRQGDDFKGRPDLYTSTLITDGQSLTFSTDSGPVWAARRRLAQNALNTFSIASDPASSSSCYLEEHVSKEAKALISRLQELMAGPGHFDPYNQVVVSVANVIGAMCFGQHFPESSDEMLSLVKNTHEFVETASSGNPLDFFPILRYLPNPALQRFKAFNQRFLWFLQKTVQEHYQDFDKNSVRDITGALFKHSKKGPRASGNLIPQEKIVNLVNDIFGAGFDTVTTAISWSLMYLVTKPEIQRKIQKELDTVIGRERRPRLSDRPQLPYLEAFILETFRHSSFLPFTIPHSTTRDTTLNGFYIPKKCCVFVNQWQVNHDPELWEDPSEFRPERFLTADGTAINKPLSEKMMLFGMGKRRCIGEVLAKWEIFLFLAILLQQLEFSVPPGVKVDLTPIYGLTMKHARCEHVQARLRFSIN

Paired box protein Pax-8 = Paired box protein Pax-8 (Homo sapiens, UniProt Q06710); assay: inhibitors of PAX8-driven TPO luciferase reporter, dose response, RMG-I cells, cherry-pick (AID 687027); format: functional, cell-based;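 further: luciferase reporter driven by Pax8 target thyroperoxidase promoter measured by SteadyGlo luminescence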
Chain of Paired box protein Pax-8 (Q06710 whole entry): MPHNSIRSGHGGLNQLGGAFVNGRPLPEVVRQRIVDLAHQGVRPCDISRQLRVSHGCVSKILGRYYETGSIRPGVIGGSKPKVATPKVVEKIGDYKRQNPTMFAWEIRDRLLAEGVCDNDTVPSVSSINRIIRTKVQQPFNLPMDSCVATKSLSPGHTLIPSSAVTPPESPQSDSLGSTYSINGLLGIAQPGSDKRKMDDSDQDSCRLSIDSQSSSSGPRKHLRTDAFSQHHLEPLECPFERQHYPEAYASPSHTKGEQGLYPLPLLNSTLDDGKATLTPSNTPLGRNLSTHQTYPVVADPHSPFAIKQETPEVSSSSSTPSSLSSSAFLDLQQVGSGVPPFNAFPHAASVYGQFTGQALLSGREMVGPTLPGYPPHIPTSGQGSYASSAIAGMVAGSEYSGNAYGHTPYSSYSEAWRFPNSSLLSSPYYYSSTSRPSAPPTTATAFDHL

[7] = target: T3, Corticotropin-releasing factor receptor 2/Corticotropin-releasing factor-binding protein (Homo sapiens, UniProt P24387+Q13324); assay: activators of CRF receptor 2 with binding protein – uHTS hits, confirmation (AID 602473); format: functional; details: read-out: EC50_Mean
T3 sequence (Q13324 whole entry): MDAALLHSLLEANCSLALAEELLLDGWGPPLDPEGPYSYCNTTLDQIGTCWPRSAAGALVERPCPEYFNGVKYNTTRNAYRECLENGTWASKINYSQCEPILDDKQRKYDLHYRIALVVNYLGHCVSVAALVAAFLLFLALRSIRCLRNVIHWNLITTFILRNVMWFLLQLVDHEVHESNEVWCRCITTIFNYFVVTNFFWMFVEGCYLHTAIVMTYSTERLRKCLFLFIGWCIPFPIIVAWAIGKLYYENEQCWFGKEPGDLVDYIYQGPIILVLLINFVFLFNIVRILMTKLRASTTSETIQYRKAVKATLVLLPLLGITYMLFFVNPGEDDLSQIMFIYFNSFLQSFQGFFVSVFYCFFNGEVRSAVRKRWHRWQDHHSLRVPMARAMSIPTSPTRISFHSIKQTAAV
T3 sequence (P24387 whole entry): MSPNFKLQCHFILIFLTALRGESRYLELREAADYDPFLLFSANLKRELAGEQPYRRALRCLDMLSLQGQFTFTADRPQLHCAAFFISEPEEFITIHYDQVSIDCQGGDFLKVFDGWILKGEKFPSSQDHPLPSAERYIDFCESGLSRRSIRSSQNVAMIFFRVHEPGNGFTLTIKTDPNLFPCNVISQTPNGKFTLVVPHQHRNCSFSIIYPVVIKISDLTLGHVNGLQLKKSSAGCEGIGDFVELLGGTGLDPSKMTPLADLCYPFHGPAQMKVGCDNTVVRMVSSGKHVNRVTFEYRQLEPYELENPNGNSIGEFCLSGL

[8] = target: T4, RNA-binding protein pos-1 (Caenorhabditis elegans, UniProt G5EF15); assay: inhibitors of POS-1/mex-3 RNA binding, dose response, biochemical, fluorescence polarization (AID 1964);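 further: purified POS-1 fused to maltose binding protein made in E. coli; potency of compounds blocking POS-1 binding to fluorescent RNA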
T4 sequence (G5EF15 whole entry): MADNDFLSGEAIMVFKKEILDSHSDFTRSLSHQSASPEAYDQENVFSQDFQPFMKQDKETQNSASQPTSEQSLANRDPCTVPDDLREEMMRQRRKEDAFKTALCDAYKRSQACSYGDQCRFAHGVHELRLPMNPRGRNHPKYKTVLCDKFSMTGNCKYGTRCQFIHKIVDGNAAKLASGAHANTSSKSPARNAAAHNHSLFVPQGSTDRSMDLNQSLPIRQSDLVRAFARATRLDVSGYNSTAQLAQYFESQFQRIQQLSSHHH

[9] = target: T5, Zinc finger protein mex-5 (Caenorhabditis elegans, UniProt Q9XUB2); assay: MEX-5/TCR-2 RNA interaction inhibitors, dose response, biochemical, C. elegans, fluorescence polarization (AID 1960)
T5 sequence (Q9XUB2 whole entry): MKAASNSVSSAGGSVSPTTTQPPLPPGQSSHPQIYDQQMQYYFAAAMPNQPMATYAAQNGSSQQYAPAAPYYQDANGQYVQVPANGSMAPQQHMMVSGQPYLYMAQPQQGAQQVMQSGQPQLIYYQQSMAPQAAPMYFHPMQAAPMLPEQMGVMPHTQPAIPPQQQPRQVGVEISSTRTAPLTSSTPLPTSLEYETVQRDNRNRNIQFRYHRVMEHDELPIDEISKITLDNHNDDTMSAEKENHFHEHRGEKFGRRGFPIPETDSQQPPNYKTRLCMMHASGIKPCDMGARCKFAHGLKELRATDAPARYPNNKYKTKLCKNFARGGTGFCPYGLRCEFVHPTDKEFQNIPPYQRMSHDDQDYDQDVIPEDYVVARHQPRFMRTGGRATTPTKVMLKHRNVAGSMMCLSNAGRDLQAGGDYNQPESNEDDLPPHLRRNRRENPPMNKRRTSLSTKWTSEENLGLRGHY

Cytochrome P450 2C9 = Cytochrome P450 2C9 (Homo sapiens, UniProt P11712)
Chain of Cytochrome P450 2C9 (P11712 whole entry): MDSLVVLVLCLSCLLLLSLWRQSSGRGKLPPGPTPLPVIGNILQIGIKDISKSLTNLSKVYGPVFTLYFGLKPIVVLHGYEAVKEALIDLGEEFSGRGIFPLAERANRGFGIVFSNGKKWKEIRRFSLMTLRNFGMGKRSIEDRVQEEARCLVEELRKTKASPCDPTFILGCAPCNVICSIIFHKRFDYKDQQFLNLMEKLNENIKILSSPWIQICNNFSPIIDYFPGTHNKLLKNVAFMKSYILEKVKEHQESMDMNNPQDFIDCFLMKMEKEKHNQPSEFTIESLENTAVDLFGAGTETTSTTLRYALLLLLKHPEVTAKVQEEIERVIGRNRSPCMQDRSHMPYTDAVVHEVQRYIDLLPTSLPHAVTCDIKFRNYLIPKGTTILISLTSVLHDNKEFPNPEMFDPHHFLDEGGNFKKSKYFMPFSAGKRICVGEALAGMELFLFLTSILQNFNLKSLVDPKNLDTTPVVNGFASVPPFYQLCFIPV

| SMILES | AC50 (Cytochrome P450 2D6) | IC50 [5] | IC50 [6] | further results |
| --- | --- | --- | --- | --- |
| CSc1cc(-c2ccccc2)n(Cc2c(Cl)cccc2Cl)c(=O)c1C#N | – | – | – | EC50 (BJ [1]): 5.96 µM (active); EC50 (BJ [2]): 64.7 µM (inconclusive); EC50 (BJ [3]): 2.86 µM (active); EC50 [4]: 3.1 µM (active) |
| CCN(CCO)C[C@H]1CCC[C@H]2CCCC[C@@H]21 | 6.31 µM (inconclusive) | – | – | – |
| CCOc1ccccc1N=C(S)NNS(=O)(=O)c1c(C)cc(C)cc1C | – | > 66 µM (inactive) | > 66 µM (inactive) | – |
| O=C(O)c1ccc(Cn2cnc3cccnc32)cc1 | – | > 66 µM (inactive) | 55.8 µM (inactive) | – |
| CCc1ccc(OCCCC(=O)Nc2ccc(N3CCCCC3)cc2)cc1 | 1.26 µM (inconclusive) | – | – | AC50 (Cytochrome P450 2C19; read-out: AC50): 10 µM (inconclusive) |
| O=C1c2ccccc2-c2cc3ccccc3cc21 | – | > 66 µM (inactive) | > 66 µM (inactive) | – |
| COC(=O)c1cc(NS(=O)(=O)c2ccc(N3CCCCC3)c([N+](=O)[O-])c2)cc(C(=O)OC)c1 | 10 µM (inconclusive) | – | – | AC50 (Cytochrome P450 2C19; read-out: AC50): 2.51 µM (inconclusive); AC50 (Cytochrome P450 1A2): 15.8 µM (inconclusive) |
| C[C@@H]1CN([C@@H](C)CO)S(=O)(=O)c2ccc(C#Cc3ccc(F)cc3)cc2O[C@H]1CN(C)C(=O)NC1CCCCC1 | – | – | – | AC50 (Paired box protein Pax-8): 7.93 µM (active) |
| O=C(Cc1ccc(Cl)cc1)NC(=S)Nc1ccccc1O | – | > 66 µM (inactive) | > 66 µM (inactive) | EC50 [7]: 5.99 µM (active) |
| COc1ccc(C2C(C(=O)c3ccco3)=C(O)C(=O)N2c2nnc(C)s2)cc1OC (stereo not given) | – | > 66 µM (inactive) | 50.4 µM (inactive) | EC50 [8]: > 300 µM (not active); EC50 [9]: 297 µM (active) |
| N=C(N)Nc1ccc(Cl)cc1 | 31.6 µM (inconclusive) | – | – | AC50 (Cytochrome P450 2C19): inconclusive |
| Fc1ccc(Nc2ncncc2-c2ccccc2C(F)(F)F)cc1 | 39.8 µM (inconclusive) | – | – | AC50 (Cytochrome P450 1A2): 20 µM (inconclusive) |
| CN(C)c1ncc2nc(-c3cccc(C#N)c3)c(=O)n(CCC#N)c2n1 | 39.8 µM (inconclusive) | – | – | AC50 (Cytochrome P450 2C9): inconclusive |

Reference: ChEMBL document CHEMBL1201862, “PubChem BioAssay data set” (2004)
